Assay results from paper PMC6748986, “Potent modulation of the CepR quorum sensing receptor and virulence in a Burkholderia cepacia complex member using non-native lactone ligands” (Scientific Reports, 2019).

Legend:
[1] = system: B. multivorans ATCC17616; assay: C. elegans survival assay, B. multivorans infection; type: in vivo; conditions: C. elegans N2 infected with B. multivorans; for Effect on survival of Bm-infected worms (agonists): 1 μM for agonists, relative to untreated worms; for Effect on survival of Bm-infected worms (antagonists): 50 μM for antagonists
Description: We next assessed the effects of our lead CepR modulators on exacerbating or alleviating infections by a Bcc member using the nematode C. elegans as a model of pathogenicity. We infected N2 nematodes with B. multivorans ATCC17616 in the presence of compound, and assessed survival of worms over time (see Methods)[13],[35],[53]. None of the compounds tested caused measurable toxicity effects in uninfected worms under these conditions. […] Our results here, using chemical CepR modulators, appear to replicate these effects in B. multivorans nematode infections.
The C. elegans survival assay was based on previously reported procedures[35],[65]. To synchronize worms, eggs were harvested by hypochlorite bleaching (5 min in 1 mL 5% bleach, 0.25 mL 5 M NaOH, 3.75 mL H2O), and grown on Nematode Growth Media (NGM) + E. coli OP50 at 21 °C. B. multivorans was grown overnight with the compound of interest in LB medium (1 μM for agonists, 50 μM for antagonists), and then the overnight culture was centrifuged, resuspended in the assay medium, standardized to OD600 = 0.8, and 25 μL of this culture was used per condition. CFUs of these standardized cultures were used to confirm that bacteria numbers were relatively the same. For the survival assay, synchronized worms (L4 stage) were suspended in liquid NGM media containing bacteria and compound in 96-well plates (100 μL total volume). […] Plates were incubated at 25 °C, after which they were analyzed by a dissecting microscope. The fraction of dead worms was determined by scoring the number of dead worms and the total number of worms in each well. At least 30 nematodes were used for each well, and each assay was performed at least in duplicate on a single day (n ≥ 60). Survival assays were then repeated at least once on different days to verify patterns. Compound effect on worm survival rarely varied between replicates, but the overall worm susceptibility varied among assays. Kaplan-Meier survival curves were calculated using GraphPad Prism (v. 7.0) software.

[2] = system: B. multivorans ATCC17616; assay: Swimming motility assay (0.3% agar); type: cell-based; conditions: 50 μM compound, 72 h, untreated = 100%
Experimental: We were interested to assess the effects of our lead CepR modulators on a phenotype under the control of QS in B. multivorans. However, very little work has been reported to directly link CepR activity in B. multivorans to any QS-controlled phenotype. […] Therefore, we chose to study the effects of compound treatment on both the swarming and swimming motility of B. multivorans (B. multivorans ATCC17616; see Methods).
Figure 3 B. multivorans motility assay data. Swimming motility was measured by spotting B. multivorans plus compound indicated in the center of M9 + 0.1% casamino acids + 0.3% agar in a 10 cm diameter petri dish. Area of the colony after 72 h incubation was calculated using ImageJ, normalized to the B. multivorans wild-type + vehicle (DMSO), and listed above each plate shown. TEXT PRINTED IN THE PICTURE: C8-AHL: 182% | E32: 195% | E35: 175% | E37: 173% | DMSO: 100% | A12: 55% | B12: 53% | E3: 58%
The motility assay was based on a previously reported procedure. B. multivorans was grown overnight with 50 μM compound at 37 °C and normalized to OD600 = 0.4, and then cells were washed with sterile water and resuspended with 50 μM fresh compound. Cells (5 μL) were spotted in the center of M9 + 0.1% Casamino Acids + 0.3% agar plates (100 mm diameter). Cells were grown for 72 h at 37 °C. Images were analyzed using ImageJ to calculate the area of the colony and normalized to the area of B. multivorans wild-type + vehicle (DMSO).

SMILES	Effect on survival of Bm-infected worms (agonists) [1]	Swimming motility, area of the colony normalized to B. multivorans wild-type + vehicle (DMSO) [2] [%]	Effect on survival of Bm-infected worms (antagonists) [1]
O=C(CCc1ccc([N+](=O)[O-])cc1)N[C@H]1CCOC1=O [Compound E37]	promoted worm killing	173	–
CCCCCC(O)CC(=O)N[C@H]1CCOC1=O (stereo partly shown) [3’OH-C8-AHL, reference compound]	did not appear to affect worm survival	–	–
O=C(CCc1ccc(I)cc1)N[C@H]1CCOC1=O [Compound E32]	–	195	–
O=C(CCc1ccc(C(F)(F)F)cc1)N[C@H]1CCOC1=O [Compound E35]	–	175	–
CCCCCCCC(=O)N[C@H]1CCOC1=O [Compound C8-AHL, N-octanoyl L-homoserine lactone, reference compound]	significantly increased worm death	182	–
CCCCCCCS(=O)(=O)N[C@H]1CCOC1=O [Compound A12]	–	55	–
O=C(CC1CCCC1)N[C@H]1CCOC1=O [Compound B12]	–	53	prolonged nematode survival
O=C(Cc1cccc(C(F)(F)F)c1)N[C@H]1CCOC1=O [Compound E3]	–	58	prolonged nematode survival
O=C(Cc1cccc(Br)c1)N[C@H]1CCOC1=O [Compound C8]	–	–	prolonged nematode survival
